Laboratory results published in patent publication US11813277B2, “Methods and agents for modulating inflammation” (The Regents of the University of California, priority 2018, dated 2023).

Columns and labels:
CPT-1 = target: T1, CPT-1 (Mus musculus, UniProt P97742); test: Palmitoyl CoA-driven respiration in permeabilized BMDMs; format: cell-based
T1 construct: endogenous in cells; host or cells: mouse bone marrow-derived macrophages (BMDMs)
T1 sequence (P97742 1-773): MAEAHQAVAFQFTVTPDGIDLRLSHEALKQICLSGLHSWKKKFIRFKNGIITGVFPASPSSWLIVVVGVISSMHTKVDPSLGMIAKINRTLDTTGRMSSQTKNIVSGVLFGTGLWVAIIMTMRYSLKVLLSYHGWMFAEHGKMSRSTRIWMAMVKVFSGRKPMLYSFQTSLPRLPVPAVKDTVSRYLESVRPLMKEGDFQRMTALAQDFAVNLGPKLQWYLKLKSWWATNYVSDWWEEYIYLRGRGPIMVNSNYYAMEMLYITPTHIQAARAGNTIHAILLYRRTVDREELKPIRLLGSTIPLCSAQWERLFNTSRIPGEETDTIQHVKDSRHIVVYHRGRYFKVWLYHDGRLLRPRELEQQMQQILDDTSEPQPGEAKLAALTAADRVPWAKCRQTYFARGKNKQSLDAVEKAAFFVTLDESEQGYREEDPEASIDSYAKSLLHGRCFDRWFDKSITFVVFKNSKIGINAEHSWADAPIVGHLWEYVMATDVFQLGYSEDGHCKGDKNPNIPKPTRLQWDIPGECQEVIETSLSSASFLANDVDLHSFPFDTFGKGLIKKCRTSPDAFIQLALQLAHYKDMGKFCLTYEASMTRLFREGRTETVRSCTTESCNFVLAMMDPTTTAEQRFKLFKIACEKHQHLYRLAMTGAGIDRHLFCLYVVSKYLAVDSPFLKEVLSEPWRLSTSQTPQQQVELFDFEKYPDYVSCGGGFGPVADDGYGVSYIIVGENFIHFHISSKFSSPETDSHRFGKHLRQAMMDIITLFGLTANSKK

[1] = tested on: adenine nucleotide translocase (ANT); test: ATP hydrolysis in isolated mitochondria, intact or alamethicin-permeabilized; format: biochemical, rat
Description: ATP hydrolysis in isolated mitochondria (McQuaker, S. J., Quinlan, C. L., Caldwell, S. T., Brand, M. D., and Hartley, R. C. (2013). A prototypical small molecule modulator uncouples mitochondria in response to endogenous hydrogen peroxide production. Chembiochem. 14, 993-1000; Divakaruni, A. S., Andreyev, A. Y., Rogers, G. W., and Murphy, A. N. (2017a) In situ measurements of mitochondrial matrix enzyme activities using plasma and mitochondrial membrane permeabilization agents. Anal. Biochem. 17, 30385-8) was performed in MAS buffer, and stimulated by respiratory chain inhibition (1 μM rotenone and 2 μM antimycin A) followed by addition of excess ATP (25 mM) and uncoupler (1 μM FCCP). Hydrolysis was inhibited by injection of either oligomycin (3 ng/mg mitochondrial protein) or carboxyatractylo side (7.5 ng/mg mitochondrial protein). Rates of extracellular acidification (ECAR, in mpH/min) were converted to proton production rates (PPR, in pmol H+/min) by determining the buffer capacity with sequential injections of HCl and H2SO4 (Mookerjee, S. A., Goncalves, R. L., Gerencser, A. A., Nicholls, D. G., and Brand, M. D. (2015). The contributions of respiration and glycolysis to extracellular acid production. Biochim et Biophys Acta. 1847, 171-81). 10 μg/mL alamethicin was used to permeabilize the mitochondrial inner membrane (1 μg/mg mitochondrial protein).

BMDMs = test: Mass spectrometry-based metabolomics of BMDMs; format: cell-based, mouse; settings: IL-4
Procedure: Cell. 173, 470-484. Briefly, cells were seeded in 6-well dishes at 1×10^6 cells/well. Cells were treated with IL-4 with and without etomoxir co-treatments (3 μM or 200 μM) similarly to other experiments. To extract intracellular metabolites, cells were briefly rinsed with cold 150 mM ammonium acetate (pH 7.3), followed by addition of 1 ml cold 80% MeOH on dry ice. Cells were detached with cell scrapers and suspensions transferred into centrifuge tubes. After rigorous mixing, the suspension was pelleted by centrifugation (1.3×104 rpm, 4° C.). The supernatant was transferred into a glass vial, metabolites were dried down under vacuum, and resuspended in 50% (v/v) acetonitrile including heavy isotope-labeled amino acids as internal standards (Chen, W. W., Freinkman, E. and Sabatini, D. M. (2017) Rapid immunopurification of mitochondria for metabolite profiling and absolute quantification of matrix metabolites. Nat. Protoc. 12, 2215-2231).
For the mass spectrometry-based analysis of the sample, 5 μL were injected onto a Luna NH2 (150 mm×2 mm, Phenomenex) column. The samples were analyzed with an UltiMate 3000RSLC (Thermo Scientific) coupled to a Q Exactive mass spectrometer (Thermo Scientific). The Q Exactive was run with polarity switching (+3.50 kV/−3.50 kV) in full scan mode with an m/z range of 65-975. Separation was achieved using A) 5 mM NH4AcO (pH 9.9) and B) ACN. The gradient started with 15% A) going to 90% A) over 18 min, followed by an isocratic step for 9 min and reversal to the initial 15% A) for 7 min. Metabolites were quantified with El Maven (v0.2.4) using accurate mass measurements (≤3 ppm) and retention times of pure standards. Data analysis was performed using the statistical language R. For the PCA and clustering analyses, only metabolites with an ANOVA p-value≤0.05 were incorporated. For visualization using heatmaps, metabolites were scaled across samples but not across metabolites. To assess what metabolites contributed the most to a given metabolic phenotype, we calculated the correlation between the loading vector for a given metabolite and the score vector of a given sample for PCs 1 and 2.

## CCOC(=O)[C@@]1(CCCCCCOc2ccc(Cl)cc2)CO1 [etomoxir]
CPT-1; conditional CPT KO BMDMs
  sensitivity of respiration to 3 μM etomoxir: largely absent
CPT-1; permeabilized BMDMs
  EC50, FCCP-stimulated palmitoyl CoA-driven respiration: nanomolar
  concentration of saturable effect: less than 3 μM
[1]; alamethicin-permeabilized mitochondria
  ATP hydrolysis: no effect
[1]; intact isolated mitochondria, etomoxir 100 μM, CAT 7.5 ng/mg, oligomycin 3 ng/mg
  ATP hydrolysis: inhibited ATP hydrolysis
BMDMs; 3 μM etomoxir
  intracellular pantothenate levels: no change
  metabolite profile (PCA): no appreciable change
BMDMs; 200 μM etomoxir
  intracellular pantothenate levels, increase: three-fold
  metabolite composition (PCA): profound change
